In brackets after ≈: the same amount, converted by molar mass. Where two headings read alike, the source gives them in different places.
Columns and labels:
A. baumannii ATCC 19606 [1] = assay: MIC without and with sub-inhibitory polymyxin B (Example 4); assay type: cell-based, Acinetobacter baumannii; details: for MIC without PB/MIC + PB: A. baumannii ATCC 19606; for MIC: Acinetobacter baumannii
A. baumannii A14 [2] = assay: as above; assay type: cell-based, Acinetobacter baumannii; details: 1st experiment
A. baumannii NCTC 13301 [3] = assay: as above; assay type: cell-based, Acinetobacter baumannii; details: A. baumannii NCTC 13301; +[…] PB; 2nd experiment
A. baumannii J2 [4] = assay: as above; assay type: cell-based, Acinetobacter baumannii; details: for MIC without PB/MIC + PB: A. baumannii J2; for MIC: Acinetobacter baumannii
A. baumannii ATCC 19606 [5] = assay: Preliminary MBC without and with sub-inhibitory polymyxin B (Example 4); assay type: cell-based, Acinetobacter baumannii; details: Acinetobacter baumannii
A. baumannii A401 [6] = assay: as above; assay type: cell-based, Acinetobacter baumannii; details: Acinetobacter baumannii, A401, A baumannii A 401, +0.06 μg/ml PB, 2nd experiment, read-out: MBC
[7] = tested on: Acinetobacter sp. (H064200250); assay: MIC without and with sub-inhibitory polymyxin B (Example 4); assay type: cell-based; details: for MIC: Acinetobacter
A. baumannii NCTC 13301 [8] = assay: as above; assay type: cell-based, Acinetobacter baumannii
A. baumannii A329 [9] = assay: Preliminary MBC without and with sub-inhibitory polymyxin B (Example 4); assay type: cell-based, Acinetobacter baumannii; details: Acinetobacter baumannii, A329, A. baumannii A329, +0.06 μg/ml PB, 2nd experiment, read-out: MBC
A. baumannii J2 [10] = assay: as above; assay type: cell-based, Acinetobacter baumannii; details: Acinetobacter baumannii
A. baumannii A489 [11] = assay: MIC without and with sub-inhibitory polymyxin B (Example 4); assay type: cell-based, Acinetobacter baumannii
A. baumannii A390 [12] = assay: as above; assay type: cell-based, Acinetobacter baumannii; details: +0.06 μg/ml PB, 2nd experiment
A. baumannii A14 [13] = assay: as above; assay type: cell-based, Acinetobacter baumannii; details: 2nd experiment
A. baumannii A472 [14] = assay: as above; assay type: cell-based, Acinetobacter baumannii; details: for MIC: Acinetobacter baumannii
A. baumannii A401 [15] = assay: as above; assay type: cell-based, Acinetobacter baumannii; details: for MIC: Acinetobacter baumannii
A. baumannii A329 [16] = assay: as above; assay type: cell-based, Acinetobacter baumannii; details: +0.06 μg/ml PB, 2nd experiment
A. baumannii A472 [17] = assay: Preliminary MBC without and with sub-inhibitory polymyxin B (Example 4); assay type: cell-based, Acinetobacter baumannii; details: Acinetobacter baumannii
A. baumannii A489 [18] = assay: as above; assay type: cell-based, Acinetobacter baumannii; details: Acinetobacter baumannii, preliminary MBC
A. baumannii A14 [19] = assay: as above; assay type: cell-based, Acinetobacter baumannii; details: 2nd experiment
Method in brief: (§1)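 Bactericidal endpoint scored visually on plates incubated at 37° C (18-20 hours): the lowest concentration where growth fell about 90% versus the positive control, generally leaving one colony or none.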

A. baumannii A473 = assay: as above; assay type: cell-based, Acinetobacter baumannii; details: Acinetobacter baumannii, A473, A. baumannii A473, +0.06 μg/ml PB, 2nd experiment, read-out: MBC
Method in brief: as §1

A. baumannii NCTC 13301 [20] = assay: as above; assay type: cell-based, Acinetobacter baumannii; details: Acinetobacter baumannii
Method in brief: as §1

A. baumannii A390 [21] = assay: as above; assay type: cell-based, Acinetobacter baumannii; details: Acinetobacter baumannii, A390, A. baumannii A390, +0.06 μg/ml PB, 2nd experiment, read-out: MBC
Method in brief: as §1

A. baumannii A14 [22] = assay: as above; assay type: cell-based, Acinetobacter baumannii; details: A. baumannii A14; +0.06 μg/ml polymyxin B; preliminary MBC; 1st experiment
[23] = A. baumannii A489, +[…] PB, 2nd experiment
[24] = A. baumannii A14, +0.06 μg/ml PB

With Cc1c(-c2ccc(CN)cc2)c(F)cn2c(=O)c(C(=O)O)cc(C3CC3)c12 [Compound 6, 8-(4-aminomethyl-phenyl)-1-cyclopropyl-7-fluoro-9-methyl-4-oxo-quinolizine-3-carboxylic acid] the “MIC without PB/MIC + PB” value (A. baumannii ATCC 19606 [1]; +0.06 μg/ml PB, 2nd experiment) was 4, the “MIC without PB/MIC + PB” value (A. baumannii ATCC 19606 [1]; ratio, PB 0.06 μg/ml, 1st experiment) was 8 and the MIC (A. baumannii ATCC 19606 [1]; ATCC19606, A. baumannii ATCC 19606, +0.06 μg/ml PB, 2nd experiment, read-out: MIC) was 0.06 µg/mL (≈ 0.164 µM). The MIC (A. baumannii ATCC 19606 [1]; ATCC19606, read-out: MIC +0.06 μg/ml PB, A. baumannii ATCC 19606, +0.06 μg/ml polymyxin B, 1st experiment) was 0.06 µg/mL, the “MIC +0.06 μg/ml PB” value (A. baumannii A14 [2]; +0.06 μg/ml polymyxin B) was 8 µg/mL and the “MIC without PB/MIC + PB” value (A. baumannii A14 [2]; ratio, PB 0.06 μg/ml) was 4. For the same molecule, the “MIC without PB/MIC + PB” value (A. baumannii NCTC 13301 [3]) was 16, the “MIC without PB/MIC + PB” value (A. baumannii J2 [4]; +[…] PB, 2nd experiment) was 32 and the “MIC without PB/MIC + PB” value (A. baumannii J2 [4]; ratio, PB […], 1st experiment) was 16. For the same molecule, the MIC (A. baumannii J2 [4]; J2) was 0.25 µg/mL (≈ 0.682 µM), the MIC (A. baumannii J2 [4]; J2, read-out: MIC +[…] PB, A. baumannii J2, +[…] polymyxin B, 1st experiment) was 1 µg/mL (≈ 2.73 µM) and the MBC (A. baumannii ATCC 19606 [5]; ATCC19606, A. baumannii ATCC 19606, +0.06 μg/ml PB, 2nd experiment, read-out: MBC) was 0.06 µg/mL (≈ 0.164 µM). For the same molecule, the MBC (A. baumannii ATCC 19606 [5]; ATCC19606, read-out: MBC +0.06 μg/ml PB, A. baumannii ATCC 19606, +0.06 μg/ml polymyxin B, 1st experiment) was 0.06 µg/mL, the MBC (A. baumannii A401 [6]) was 32 µg/mL (≈ 87.3 µM) and the MIC [7] was 2 µg/mL (≈ 5.46 µM). For the same molecule, the “MIC without PB/MIC + PB” value ([7]; Acinetobacter spp. H064200250 (OXA51), +[…] PB, 2nd experiment) was 8, the “MIC without PB/MIC + PB” value ([7]; Acinetobacter spp. H064200250, ratio, PB […], 1st experiment) was 2 and the MIC ([7]; read-out: MIC +[…] PB, Acinetobacter spp. H064200250, +[…] polymyxin B, 1st experiment) was 4 µg/mL (≈ 10.9 µM). For the same molecule, the “MIC without PB/MIC + PB” value (A. baumannii NCTC 13301 [8]; A. baumannii NCTC 13301, ratio, PB […], 1st experiment) was 32, the MIC (A. baumannii NCTC 13301 [8]; Acinetobacter baumannii, NCTC13301, read-out: MIC +[…] PB) was 1 µg/mL (≈ 2.73 µM) and the MBC (A. baumannii A329 [9]) was 8 µg/mL (≈ 21.8 µM). It also gave an MBC (A. baumannii J2 [10]; J2) of 0.25 µg/mL (≈ 0.682 µM), an MBC (A. baumannii J2 [10]; J2, read-out: MBC +[…] PB, A. baumannii J2, +[…] polymyxin B, preliminary MBC, 1st experiment) of 1 µg/mL (≈ 2.73 µM) and an MIC (A. baumannii A489 [11]; [23]) of 0.5 µg/mL (≈ 1.36 µM). For the same molecule, the “MIC without PB/MIC + PB” value (A. baumannii A489 [11]; [23]) was 8, the “MIC without PB/MIC + PB” value (A. baumannii A489 [11]; A. baumannii A489, ratio, PB […], 1st experiment) was 16 and the MIC (A. baumannii A489 [11]; Acinetobacter baumannii, A489, read-out: MIC +[…] PB, A. baumannii A489, +[…] polymyxin B, 1st experiment) was 0.5 µg/mL (≈ 1.36 µM). For the same molecule, the “MIC without PB/MIC + PB” value (A. baumannii A390 [12]; A. baumannii A390) was 8, the MIC (A. baumannii A390 [12]; Acinetobacter baumannii, A390, A. baumannii A390, read-out: MIC) was 2 µg/mL (≈ 5.46 µM) and the MIC (A. baumannii A14 [13]; [24]) was 4 µg/mL (≈ 10.9 µM). For the same molecule, the “MIC without PB/MIC + PB” value (A. baumannii A14 [13]; [24]) was 4, the MIC (A. baumannii A14 [13]; Acinetobacter baumannii, A14, A. baumannii A14, without PB, read-out: MIC) was 16 µg/mL (≈ 43.7 µM) and the “MIC without PB/MIC + PB” value (A. baumannii A472 [14]; A. baumannii A472, ratio, PB […], 1st experiment) was 16. For the same molecule, the MIC (A. baumannii A472 [14]; A472) was 1 µg/mL (≈ 2.73 µM), the MIC (A. baumannii A472 [14]; A472, read-out: MIC +[…] PB, A. baumannii A472, +[…] polymyxin B, 1st experiment) was 0.5 µg/mL (≈ 1.36 µM) and the “MIC without PB/MIC + PB” value (A. baumannii A401 [15]; A baumannii A 401, ratio, PB 0.06 μg/ml, 1st experiment) was 4. For the same molecule, the MIC (A. baumannii A401 [15]; A401, A baumannii A 401, +0.06 μg/ml PB, 2nd experiment, read-out: MIC) was 4 µg/mL (≈ 10.9 µM), the MIC (A. baumannii A401 [15]; A401, read-out: MIC +0.06 μg/ml PB, A baumannii A 401, +0.06 μg/ml polymyxin B, 1st experiment) was 4 µg/mL and the “MIC without PB/MIC + PB” value (A. baumannii A329 [16]; A. baumannii A329) was 2. The MIC (A. baumannii A329 [16]; Acinetobacter baumannii, A329, A. baumannii A329, read-out: MIC) was 8 µg/mL (≈ 21.8 µM), the MBC (A. baumannii A472 [17]; A472) was 1 µg/mL (≈ 2.73 µM) and the MBC (A. baumannii A472 [17]; A472, read-out: MBC +[…] PB, A. baumannii A472, +[…] polymyxin B, preliminary MBC, 1st experiment) was 0.5 µg/mL (≈ 1.36 µM). The MBC (A. baumannii A489 [18]; A489, A. baumannii A489, +[…] PB, 2nd experiment, read-out: MBC) was 0.5 µg/mL (≈ 1.36 µM), the MBC (A. baumannii A489 [18]; A489, read-out: MBC +[…] PB, A. baumannii A489, +[…] polymyxin B, 1st experiment) was 1 µg/mL (≈ 2.73 µM) and the MBC (A. baumannii A14 [19]; [24]) was 8 µg/mL (≈ 21.8 µM). It also gave an MBC (A. baumannii A14 [19]; Acinetobacter baumannii, A14, A. baumannii A14, without PB, read-out: MBC) of 16 µg/mL (≈ 43.7 µM), an MBC (A. baumannii A473) of 2 µg/mL (≈ 5.46 µM) and an MBC (A. baumannii NCTC 13301 [20]; NCTC13301) of 2 µg/mL (≈ 5.46 µM). For the same molecule, the MBC (A. baumannii NCTC 13301 [20]; NCTC13301, read-out: MBC +[…] PB) was 4 µg/mL (≈ 10.9 µM), the MBC (A. baumannii A390 [21]) was 2 µg/mL (≈ 5.46 µM) and the “MBC +0.06 μg/ml PB” value (A. baumannii A14 [22]) was 8 µg/mL.

From patent US20190105367A1, “ANTIMICROBIAL 4-OXOQUINOLIZINES” (Emergent Product Development Gaithersburg Inc., priority 2011, published 2019)
